Data published in patent US20160270393A1, “INSECT REPELLENT COMPOSITIONS AND METHODS OF USE” (Wageningen Universiteit, priority 2013, published 2016).
“Also recorded” adds a separate entry of the source. Like-named read-outs stand apart in the source and are kept apart here.

How the values were obtained:
[1] = tested on: Anopheles gambiae s.s. females; experiment: Laboratory bioassay of repellent compounds (landings on heated, odour-baited plateau); type: in vivo; settings: for effect on number of landings during eight minutes compared to ethanol control: 1% in ethanol on nylon strip, ten females, n=8, Mann-Whitney U, α=0.0042, listed in order of increasing efficacy; for repellent effect on host-seeking mosquitoes: 1% concentration
Experimental: The bioassay was set up in a room in which air temperature and relative humidity (RH) could easily be controlled. During experiments these parameters were continuously monitored using a Tinyview® data logger with display. Temperature was maintained at 24±1° C. and RH was kept between 60 and 75%.
Because repellents are volatile compounds, the risk of contamination of the setup is always present when testing these substances. Therefore, this bioassay uses replaceable 30×30×30 cm Bugdorm® cages as flight chambers. Although made of polyethylene (PE) and polypropylene (PP) which may potentially pick up the compounds tested, no contamination effects were observed, in contrast to a previously used cage made of metal and polycarbonate (see below).
Mosquitoes were attracted to a heated circular plateau (1) of diameter 15 cm acting as a landing surface, that was positioned underneath the gauze bottom of the Bugdorm® (2). Ten moist filter papers (3) of diameter 8 cm were applied on top of the heating plateau. Metal gauze was placed over the papers on which the strips releasing the odour blend were laid (see below). A transparent plastic cylinder was placed around the plateau to concentrate the warm, humid air within the area above the plateau.
A five-compound odour bait, which simulates the smell of a human foot (Mukabana et al., 2012), provided the necessary attractive background against which repellency could be measured. The individual compounds were released from nylon strips (cut from panty hoses: 90% polyamide, 10% spandex, Marie Claire®) (see Okumu et al. (2010b)). Concentrations were optimized for this release method: ammonia (25%), L-(+)-lactic-acid (88-92%), tetradecanoic acid (16% in ethanol), 3-methyl-1-butanol (0.01% in paraffin oil) and butan-1-amine (0.001% in paraffin oil). Strips measuring 26.5 cm×1 cm were impregnated with the attractive compounds by dipping them into an Eppendorf tube containing 1 ml of solution. Subsequently, they were stored at room temperature for three to five hours. Hereafter the strips were hung for half an hour under a fume hood to allow excess fluids to leak off. Finally they were packed in aluminium foil and stored at 4° C. in a refrigerator until use. Pulses of CO2 were released into the Bugdorm® through a teflon tube (4) that rested on top of the Bugdorm®. Each eight seconds, a two second pulse was released at 2.17 mL/sec (or 130 mL/min).
A glass screen (5, 6) was placed between the Bugdorm® and the place from where a researcher would carry out the behavioural observations. In this way, skin and breath emanations from the researcher were prevented from interfering directly with the mosquitoes inside the flight chamber. In the ceiling of the experimental room a fan created a gentle suction to carry off any volatiles emitted by both the experimental operator and the setup.
Repellence was measured by releasing a number of female Anopheles gambiae s.s. mosquitoes into the cage. The mosquitoes were highly attracted to the warm area on the bottom of the Bugdorm® cage and they would land and probe with their proboscis through the gauze in search of a blood-host.
A potential repellent was released from a nylon strip that was prepared identically to the method used for attractive compounds, with the exception that the strips were not hung up under a fume hood but stored in Eppendorf tubes at 4° C. directly after their preparation. The impregnated nylon strips with the repellents were taken out of their solution just before the start of the experiment and allowed to leak out on a piece of filter paper for 10 s before they were placed in the experimental setup. Strips were laid directly on the gauze bottom of the Bugdorm®, in a circle within the circular area under which the attractant blend was released.
After one minute of acclimatization time, the number of landings within the circular area formed by the treated strip was counted for a period of eight minutes. […]

[2] = tested on: An. gambiae s.s., Mbita strain; settings: comparison statement; DEET not tested in this setup; cited from earlier work
[3] = tested on: An. gambiae s.s., Mbita strain; experiment: Semi-field testing in MalariaSphere (push / push-pull, trap catches inside and outside experimental house); type: in vivo, Anopheles gambiae s.s.; design: Reduction (mosquitoes trapped indoors vs control): concentration or dose not given beside the values; settings: for Indoors Mean (SEM) no. mosquitoes / Indoors Percentage trapped / Reduction (mosquitoes trapped indoors vs control) / Outdoors Mean (SEM) no. mosquitoes / Outdoors Percentage trapped: n=6; for spatial repellent effect: inventors' observation, repellent traps spaced about 4-5 meters apart
Excerpt: Mosquitoes (An. gambiae s.s., Mbita strain; henceforth termed An. gambiae) were reared under ambient atmospheric conditions in screenhouses (larvae) and holding rooms (adults) at the Thomas Odhiambo Campus (TOC) of the International Centre of Insect Physiology and Ecology (ICIPE) located near Mbita Point township in western Kenya. Mosquito eggs were placed in plastic trays containing filtered water from Lake Victoria. All larval instars were fed on Tetramin® baby fish food which was supplied thrice per day. Pupae were collected daily and placed in mesh-covered cages (30×30×30 cm) prior to adult emergence. Adult mosquitoes were fed on 6% glucose solution through wicks made from adsorbent tissue paper.
Four to six day old female mosquitoes that had no prior access to blood were used for the semi-field experiments. The mosquitoes were collected from the colony at 12:00 h each day and stored for eight hours in the colony room with access to water on cotton wool. Within 15 min. before the start of the experiment the cups with the mosquitoes were transported to the MalariaSphere.
The experiments were conducted in Kenya at the Mbita Point Research & Training Centre of the International Centre of Insect Physiology and Ecology (ICIPE). Experiments took place in the MalariaSphere, a screenhouse into which a traditional house was built surrounded by natural vegetation (see Knols et al. (2002)). […] The MalariaSphere was set up as described by Knols et al. (2002) with as only modification that no breeding sites were present.
In the experiment the effects of attractant-baited traps and the dispersal of repellents around the traditional house were tested. Eight different setups were tested. During all tests, one attractant-baited trap (see below) was placed inside the experimental house to represent a human being. The house entry of the mosquitoes was measured by the number of mosquitoes caught by the trap inside the house.
Each night at 20:00 h, 200 female mosquitoes were released into the MalariaSphere. At 06:30 h the next morning the experiment was terminated by closing and switching off all traps. The traps were then placed in a freezer for several minutes to inactivate the mosquitoes, after which the number of trapped mosquitoes was determined.
The study compared the effect of three different repellents; in push-only situations, as well as in situations in which both the repellent and the attractive elements were present. […] Open circles represent a MMX trap baited with attractant. Filled circles represent a MMX trap dispersing the repellent. The asterisk indicates the mosquito release point. The numbers of the treatments correspond to the following:
Each setup was tested during six different nights, thus a total of 48 tests was carried out, during the same number of nights. The order of the tests was not fully randomized in order to minimize the risk of contamination of the MalariaSphere with the odours used.
Besides PMD, catnip essential oil (e.o.) and delta-undecalactone (dUDL) were used as repellents. Strips were impregnated with 40% solutions (catnip e.o. and dUDL were dissolved in paraffin oil) as described below.
Each night 200 mosquitoes were released from one central point between the entrance of the screenhouse and the experimental hut (see FIG. 3).
Mosquito Magnet® X (MM-X) traps (Kline (1999), Njiru et al (2006)) were baited with CO2 and a five-compound odour blend, which simulates the smell of a human foot (Mukabana et al., 2012). The individual compounds of the attractive blend were released from nylon strips (cut from panty hoses: 90% polyamide, 10% spandex, Marie Claire®) (Okumu et al. (2010b)). Concentrations were optimized for this setup and release method: ammonia (2.5% in water), L-(+)-lactic-acid (88-92%), tetradecanoic acid (0.000032% in ethanol), 3-methyl-1-butanol (0.000001% in water) and butan-1-amine (0.001% in paraffin oil) (see Table 1). […]

[4] = background statement; cited from earlier work
[5] = push only, 40% solution on strip, 200 mosquitoes released per night
[6] = push only, 200 released per night

Compound	effect on number of landings during eight minutes compared to ethanol control [1]	Indoors Mean (SEM) no. mosquitoes [3, 5]	Indoors Percentage trapped [3, 6]	Outdoors Mean (SEM) no. mosquitoes ([3]; push-pull)	Outdoors Percentage trapped ([3]; push-pull)	repellent effect on host-seeking mosquitoes [1]	spatial repellent effect [3]	solubility [4]	further results
CC(=O)CCC=C(C)C [6-methyl-5-hepten-2-one]	significantly reduced the number of landings								
CCN(CC)C(=O)c1cccc(C)c1 [DEET, N,N-diethyl-meta-toluamide]	significantly reduced the number of landings								spatial repellent effect [2]: little or no spatial repellent effect; also recorded: no spatial effect on distances from the human skin greater than a few millimeters
CC1CCC(C(C)(C)O)C(O)C1 (stereo not drawn) [PMD, p-Menthane-3,8-diol, reference compound]	significantly reduced the number of landings	44.5 (5.6) b	22.3%	125.0 (13.8)	62.5%				Reduction (mosquitoes trapped indoors vs control) ([3]; push only): 45.7%; Indoors Mean (SEM) no. mosquitoes ([3]; push-pull (repellent plus attractant-baited traps outside), 200 released per night): 6.8 (1.2) c, d; Indoors Percentage trapped ([3]; push-pull, 200 released per night): 3.4%; Reduction (mosquitoes trapped indoors vs control) ([3]; push-pull): 91.7%
C=CC(C)(O)CCC=C(C)C (stereo not drawn) [linalool]	significantly reduced the number of landings								
CCCCCC1CCCC(=O)O1 (stereo not drawn) [δ-decalactone, 6-pentyloxan-2-one]	significantly reduced the number of landings					strong repellent effect	significant spatial repellent effect; also recorded: significant repellent effect from a distance of at least several decimeters	solubility in alcohols or oils	
CCCCCCC1CCCC(=O)O1 (stereo not drawn) [δ-undecalactone, 6-hexyloxan-2-one]	significantly reduced the number of landings	15.2 (2.5) c(d)	7.6%	122.8 (7.1)	61.4%	strong repellent effect	significant spatial repellent effect; also recorded: significant repellent effect from a distance of at least several decimeters	solubility in alcohol	Reduction (mosquitoes trapped indoors vs control) ([3]; push only, listed as dUDL): 81.5%; Reduction (mosquitoes trapped indoors vs control) ([3]; push only, listed as delta-undecalactone): 81.5%; Indoors Mean (SEM) no. mosquitoes ([3]; push-pull (repellent plus attractant-baited traps outside), 200 released per night, listed as dUDL): 3.7 (0.7) d; Indoors Mean (SEM) no. mosquitoes ([3]; push-pull (repellent plus attractant-baited traps outside), 200 released per night, listed as delta-undecalactone): 3.7 (0.7); Indoors Percentage trapped ([3]; push-pull, 200 released per night, listed as dUDL): 1.9%; Indoors Percentage trapped ([3]; push-pull, 200 released per night, listed as delta-undecalactone): 1.9%; Reduction (mosquitoes trapped indoors vs control) ([3]; push-pull, listed as dUDL): 95.5%; Reduction (mosquitoes trapped indoors vs control) ([3]; push-pull, listed as delta-undecalactone): 95.5%
